Patent US20210137853A1, “METHODS OF TREATING EPILEPTIC PATIENTS WITH FENFLURAMINE” (Zogenix International Limited, priority 2019, published 2021)
Several values for one entry are separate records, joined by “and”; a condition that tells them apart may be missing. Identical values can stand only once. Like-named read-outs stand apart in the source and are kept apart here.

How the values were obtained:
[1] = test system: Maximal Electroshock (MES) model of acute generalized tonic clonic seizures; experiment: MES test of fenfluramine (FFA) alone, dose and time range; type: in vivo, mouse
From the text: Results are depicted in Table 6 below.

[2] = test system: Maximal Electroshock (MES) model of acute generalized tonic clonic seizures; experiment: MES test of fenfluramine in combination with serotonergic inhibitors; conditions: for Activity in MES model in presence of FFA (animals protected): Table 7, compound combined with 3 mg/kg FFA; for Impaired (I/F) / Protected (N/F): compound IP at Table 5 dose and time of test, with fenfluramine 3 mg/kg IP 4 hr pre-test; for effect on FFA anti-seizure activity in MES model (in words): summary of Table 7
Procedure: Specifically, the present example describes characterization of anticonvulsant effects of fenfluramine when administered in combination with various other compounds using a murine model of seizures: a Maximal Electroshock (IVIES) model. Maximal Electroshock (IVIES) is a model of acute generalized tonic clonic seizures. Induction of seizures is caused by 60 Hz 0.2 second alternating 50 mA current in the mouse. Tonic hindlimb extensions are measured to assess seizures or seizure protection.
So, for example, a compound with a 1 hour time of peak activity would be administered 3 hours after FEN administration in the study design.

5-HT1A = biological target: T1, 5-HT1A (Homo sapiens, UniProt P08908); conditions: cited from earlier work; for Ki: values from ChemBL, PDSP or DrugBank.ca and literature
T1 sequence (P08908 1-422): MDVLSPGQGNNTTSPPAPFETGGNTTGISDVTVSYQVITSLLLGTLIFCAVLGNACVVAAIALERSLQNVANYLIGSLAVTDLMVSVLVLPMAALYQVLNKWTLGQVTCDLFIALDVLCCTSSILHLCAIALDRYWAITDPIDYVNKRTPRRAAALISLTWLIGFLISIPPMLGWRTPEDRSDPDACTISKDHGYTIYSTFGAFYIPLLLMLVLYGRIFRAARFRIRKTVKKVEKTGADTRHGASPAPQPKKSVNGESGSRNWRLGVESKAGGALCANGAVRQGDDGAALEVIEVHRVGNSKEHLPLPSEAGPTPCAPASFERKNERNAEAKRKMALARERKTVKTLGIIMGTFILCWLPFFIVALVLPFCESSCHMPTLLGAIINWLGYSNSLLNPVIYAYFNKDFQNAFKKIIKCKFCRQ

5-HT1D = 5-HT1D (Homo sapiens, UniProt P28221); conditions: Table 4, cited from earlier work; for Ki: values from ChemBL, PDSP or DrugBank.ca and literature
5-HT1B = 5-HT1B (Homo sapiens, UniProt P28222); conditions: cited from earlier work
5-HT2C = biological target: T2, 5-HT2C (Homo sapiens, UniProt P28335); conditions: Table 4; values from ChemBL, PDSP or DrugBank.ca and literature; cited from earlier work
T2 sequence (P28335 33-458): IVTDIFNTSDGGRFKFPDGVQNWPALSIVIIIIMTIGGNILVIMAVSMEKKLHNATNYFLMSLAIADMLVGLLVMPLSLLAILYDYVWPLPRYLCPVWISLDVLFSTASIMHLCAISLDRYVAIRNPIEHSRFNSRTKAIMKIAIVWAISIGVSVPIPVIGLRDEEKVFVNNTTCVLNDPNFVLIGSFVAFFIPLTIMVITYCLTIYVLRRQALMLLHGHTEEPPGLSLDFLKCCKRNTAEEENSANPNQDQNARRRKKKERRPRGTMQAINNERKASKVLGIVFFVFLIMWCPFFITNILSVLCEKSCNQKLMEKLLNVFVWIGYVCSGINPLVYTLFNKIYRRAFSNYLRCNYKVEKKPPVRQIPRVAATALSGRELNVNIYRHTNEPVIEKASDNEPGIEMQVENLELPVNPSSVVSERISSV

Dravet syndrome seizures = conditions: supplemented with clobazam and valproate; cited from earlier work
5-HT2A = 5-HT2A (Homo sapiens, UniProt P28223); conditions: Table 4; values from ChemBL, PDSP or DrugBank.ca and literature; cited from earlier work
MES test = conditions: cited from earlier work
[3] = fenfluramine 3 mg/kg IP plus vehicle (VEH) only
[4] = 50% inhibition of specific binding, Moser et al. 1990

5-HT1D, sequence (P28221 whole entry, species assumed): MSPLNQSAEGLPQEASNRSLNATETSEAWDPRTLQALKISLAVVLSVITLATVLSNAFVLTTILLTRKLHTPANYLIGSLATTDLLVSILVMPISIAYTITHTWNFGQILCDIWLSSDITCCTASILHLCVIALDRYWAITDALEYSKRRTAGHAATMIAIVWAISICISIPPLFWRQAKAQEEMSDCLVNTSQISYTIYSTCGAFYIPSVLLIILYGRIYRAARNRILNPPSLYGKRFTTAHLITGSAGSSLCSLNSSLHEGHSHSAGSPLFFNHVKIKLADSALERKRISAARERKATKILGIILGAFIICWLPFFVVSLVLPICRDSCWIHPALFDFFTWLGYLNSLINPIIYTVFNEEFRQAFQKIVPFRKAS
5-HT1B, sequence (P28222 whole entry, species assumed): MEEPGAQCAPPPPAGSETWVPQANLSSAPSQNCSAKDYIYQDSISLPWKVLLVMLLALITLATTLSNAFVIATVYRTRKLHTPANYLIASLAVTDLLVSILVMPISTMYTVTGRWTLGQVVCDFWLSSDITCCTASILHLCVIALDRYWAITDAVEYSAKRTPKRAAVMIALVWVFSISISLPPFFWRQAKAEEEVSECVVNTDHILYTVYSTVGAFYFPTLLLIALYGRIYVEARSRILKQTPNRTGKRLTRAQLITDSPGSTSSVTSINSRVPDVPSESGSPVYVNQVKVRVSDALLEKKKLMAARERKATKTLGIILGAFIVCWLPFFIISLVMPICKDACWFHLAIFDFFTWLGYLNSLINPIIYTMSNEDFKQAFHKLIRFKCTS
5-HT2A, sequence (P28223 whole entry): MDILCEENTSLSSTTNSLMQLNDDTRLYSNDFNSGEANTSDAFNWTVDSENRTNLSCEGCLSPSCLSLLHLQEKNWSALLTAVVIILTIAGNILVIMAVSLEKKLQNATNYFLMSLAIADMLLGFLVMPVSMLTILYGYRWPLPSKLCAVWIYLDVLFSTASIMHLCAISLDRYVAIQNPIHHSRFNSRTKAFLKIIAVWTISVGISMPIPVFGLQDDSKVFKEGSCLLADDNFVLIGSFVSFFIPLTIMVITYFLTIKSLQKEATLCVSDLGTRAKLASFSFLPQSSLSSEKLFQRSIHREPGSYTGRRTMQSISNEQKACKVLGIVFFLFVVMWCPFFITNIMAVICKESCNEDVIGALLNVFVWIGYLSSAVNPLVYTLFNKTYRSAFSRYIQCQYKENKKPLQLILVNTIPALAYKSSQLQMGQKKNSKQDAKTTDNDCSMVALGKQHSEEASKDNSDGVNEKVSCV

Compound: CCNC(C)Cc1cccc(C(F)(F)F)c1 (racemic) [Fenfluramine, (RS)—N-ethyl-1-[3-(trifluoromethyl)phenyl]propan-2-amine]
- Activity in MES model: FFA protected ([1]; 2.5 mg/kg IP, 4 hr pre-MES, SOW #1 MES Quantification): FFA protected = 3/4
- animals protected in the MES assay ([1]; 3 mg/kg FFA): 50-60%
- Activity in MES model: FFA protected ([1]; 3 mg/kg IP, 2 hr pre-MES, SOW #1 MES Identification): FFA protected = 3/4
- Activity in MES model: FFA protected ([1]; 3 mg/kg, 4 hr pre-MES, SOW #2 (-) control): FFA protected = 4/8
- Activity in MES model: FFA protected ([1]; 3 mg/kg, 4 hr pre-MES, SOW #3 (-) control): FFA protected = 5/8
- Activity in MES model: FFA protected ([1]; 5 mg/kg IP, 4 hr pre-MES, SOW #1 MES Quantification): FFA protected = 6/8
- protection in the MES model ([1]; 10 mg/kg FFA): 100%
- Activity in MES model: FFA protected ([1]; 10 mg/kg IP, 2 hr pre-MES, SOW #1 MES Time Course): FFA protected = 3/4
- Activity in MES model: FFA protected ([1]; 10 mg/kg IP, 4 hr pre-MES, SOW #1 MES Quantification): FFA protected = 8/8
- Activity in MES model: FFA protected ([1]; 10 mg/kg IP, 4 hr pre-MES, SOW #1 MES Time Course): FFA protected = 4/4
- Impaired (I/F) [1, 3]: 0/8
- Protected (N/F) [1, 3]: 4/8 and 5/8

Compound: OC(CN1CCN(c2cccc(Cl)c2)CC1)C(c1ccccc1)c1ccccc1 (stereo not drawn) [BRL 15572]
- Activity in MES model in presence of FFA (animals protected) [2]: FFA reduced protection = 1/8
- Impaired (I/F) [2]: 0/8
- Protected (N/F) [2]: 1/8
- effect on FFA anti-seizure activity in MES model (in words) [2]: appear to block FFA anti-seizure activity
- pKi 5-HT1A (5-HT1A; Table 4): 7.7
- pKi 5-HT1D (5-HT1D): 7.9

Compound: O=C1CC2(CCCC2)CC(=O)N1CCNCC1COc2ccccc2O1 (stereo not drawn) [Binospirone]
- Activity in MES model in presence of FFA (animals protected) [2]: FFA protected = 3/8
- Impaired (I/F) [2]: 0/8
- Protected (N/F) [2]: 3/8
- pIC50 5-HT1A (5-HT1A; [4]): 8.6
- pIC50 5-HT1B (5-HT1B; [4]): 4.5

Compound: NC(=O)N1c2ccccc2C=Cc2ccccc21 [Carbamazepine]
- Activity in MES model in presence of FFA (animals protected) [2]: Protected = 8/8
- Impaired (I/F) [2]: 0/8
- Protected (N/F) [2]: 8/8
- effect on FFA anti-seizure activity in MES model (in words) [2]: no interference was observed

Compound: CN(C)CCCN1c2ccccc2Sc2ccc(Cl)cc21 [Chlorpromazine]
- Activity in MES model in presence of FFA (animals protected) [2]: FFA protected = 5/8
- Protected (N/F) [2]: 5/8
- effect on FFA anti-seizure activity in MES model (in words) [2]: do not block FFA anti-seizure activity
- Ki (5-HT1D): 452 nM

Compound: CN1CCN(C2=Nc3cc(Cl)ccc3Nc3ccccc32)CC1 [Clozapine]
- Activity in MES model in presence of FFA (animals protected) [2]: FFA reduced protection = 1/8
- effect on FFA anti-seizure activity in MES model (in words) [2]: appear to block FFA anti-seizure activity

Compound: CN1CCN(C2=Nc3ccccc3Oc3ccc(Cl)cc32)CC1 [Loxapine]
- Ki (5-HT1A; Table 4): 2460 nM
- Ki (5-HT2C): 9.5 to 21 nM
- Ki (5-HT1D): 3470 nM
- Ki (5-HT1B; Table 4, values from ChemBL, PDSP or DrugBank.ca and literature): 388 nM

Compound: Clc1ccc2c(c1)N=C(N1CCNCC1)c1ccccc1N2 [N-desmethyl-clozapine, N-desmethylclozapine]
- Activity in MES model in presence of FFA (animals protected) [2]: FFA reduced protection = 1/8
- Impaired (I/F) [2]: 0/8
- Protected (N/F) [2]: 1/8
- effect on FFA anti-seizure activity in MES model (in words) [2]: appear to block FFA anti-seizure activity
- Ki (5-HT1A; Table 4): 160 nM
- Ki (5-HT2C): 4.8 nM
- Ki (5-HT1D): 130 nM

Compound: O=c1[nH]c2ccccc2n1C1CCN(CCCC(c2ccc(F)cc2)c2ccc(F)cc2)CC1 [Pimozide]
- Activity in MES model in presence of FFA (animals protected) [2]: FFA protected = 3/8
- Protected (N/F) [2]: 3/8
- effect on FFA anti-seizure activity in MES model (in words) [2]: do not block FFA anti-seizure activity
- Ki (5-HT1D): 3100 nM

Compound: CC(C)NCC(O)COc1cccc2[nH]ccc12 (stereo not drawn) [Pindolol]
- Activity in MES model in presence of FFA (animals protected) [2]: FFA protected = 5/8
- Protected (N/F) [2]: 5/8
- effect on FFA anti-seizure activity in MES model (in words) [2]: do not block FFA anti-seizure activity
- Ki (5-HT1D): 4900 nM

Compound: CC(C)(C)C(O)/C=C/c1ccc2c(c1)OCO2 (stereo not drawn) [Stiripentol, stiripentol]
- reduction of overall seizure rate (Dravet syndrome seizures): 70%

Compound: CN1CC2c3ccccc3Oc3ccc(Cl)cc3C2C1 (stereo not drawn) [asenapine]
- Ki (5-HT2A): 0.77 nM
- Activity in MES model in presence of FFA (animals protected) [2]: FFA reduced protection = 2/8
- Impaired (I/F) [2]: 0/8
- Protected (N/F) [2]: 2/8
- Ki (5-HT1A; Table 4): 15 nM
- Ki (5-HT2C): 0.27 nM
- Ki (5-HT1D): 10.2 nM

Compound: CN(C)CCCN1c2ccccc2CCc2ccc(Cl)cc21 [clomipramine]
- Activity in MES model in presence of FFA (animals protected) [2]: FFA protected = 7/8
- Impaired (I/F) [2]: 0/8
- Protected (N/F) [2]: 7/8
- effect on FFA anti-seizure activity in MES model (in words) [2]: do not block FFA anti-seizure activity
- Ki (5-HT2C): 64.6 nM

Compound: CN(C)CCC=C1c2ccccc2COc2ccccc21 [doxepin]
- Activity in MES model in presence of FFA (animals protected) [2]: FFA protected = 7/8
- Protected (N/F) [2]: 7/8
- effect on FFA anti-seizure activity in MES model (in words) [2]: do not block FFA anti-seizure activity
- ED50 in MES test (MES test; 0.25 hr post-administration): 8.2 mg/kg
- ED50 in MES test (MES test; IP, at TPE of 5 min): 6.6 mg

Compound: CN1CCN2c3ccccc3Cc3ccccc3C2C1 (stereo not drawn) [mianserin]
- Activity in MES model in presence of FFA (animals protected) [2]: FFA reduced protection = 2/8
- Impaired (I/F) [2]: 0/8
- Protected (N/F) [2]: 2/8

Compound: OCCN1CCN(CCCN2c3ccccc3Sc3ccc(Cl)cc32)CC1 [perphenazine]
- Activity in MES model in presence of FFA (animals protected) [2]: FFA reduced protection = 2/8
- Protected (N/F) [2]: 2/8
